# From patent US11166914B2, “Tumor therapeutic agent and kit containing gemcitabine liposome composition” (FUJIFILM Corporation, priority 2015, dated 2021)
# Counter-ions that a name gives are not always drawn.
# Key:
# [1] = system: malignant tumors; conditions: gemcitabine single agent, cancer patients; N Engl J Med 2013, 369 (18), 1691-1703; cited from earlier work
# [2] = system: Capan-1 cells of a human pancreatic cancer cell strain; assay: Pharmacological test on Capan-1 subcutaneous transplantation tumor-bearing mouse model; format: in vivo, female nude mouse; conditions: single agent, no Abx; Gem 240 mg/kg or composition A 3 mg/kg as gemcitabine; tail vein once a week for 3 weeks from day 17
# Method: The volume of a tumor was calculated using the following equation by measuring the major axis (a) and the minor axis (b) of the tumor with calipers. (a×b^2)×0.5 (where “a” is the major axis and “b” is the minor axis.) Equation: […]
# Gemcitabine (hereinafter, also referred to as Gem), abraxane (hereinafter, also referred to as Abx), and a gemcitabine-contained liposome composition (hereinafter, also referred to as a composition A) were used as test substances.
# Gem was prepared by dissolving gemcitabine hydrochloride (manufactured by TEVA) in physiological saline. Abx obtained by dissolving abraxane (manufactured by Celgene) in physiological saline was used. A gemcitabine-contained liposome composition prepared in Reference Example 1 was used.
# 1×10^7 Capan-1 cells of a human pancreatic cancer cell strain were transplanted subcutaneously into the flank of a female nude mouse to form subcutaneous tumors. The effect of controlling the subcutaneous tumor in combination administration of Abx and the composition A was evaluated using the volume of the tumor as an index. As test substances, a sucrose solution was used as a group 1, Gem was used as a group 2, a composition A was used as a group 3, Abx and Gem were respectively used as a group 4 and a group 5, and Abx and a composition A were respectively used as a group 6 and a group 7. Groups 1 to 5 are comparative examples and groups 6 and 7 are examples. All test substances were administered to the tail vein once a week from day 17 after transplantation for a total of 3 weeks.
# Tukey's multiple comparisons test was performed as a statistical analysis, and a P value less than 5% among the groups was determined to indicate that there is a statistically significant difference. Graphpad Prism version 5.03 was used for data processing.
# [3] = gemcitabine single agent; background statement; cited from earlier work
compound,measurement,setting,value
"Nc1ccn([C@@H]2O[C@H](CO)[C@@H](O)C2(F)F)c(=O)n1 [Gem, gemcitabine hydrochloride]",Efficiency of single agent to a tumor,[1],10%
same,Median survival period,[1],6.7 months
same,"Number of days until tumor volume average value of 2,000 mm^3 is reached",[2],52 days
same,Tumor regression rate from start of medication,[2],N.R.
same,Tumor volume average value on day 38 after transplantation,[2],1397^a) mm^3
same,Retention time in blood,[3],20 min
